How the values were obtained:
Type in all cases: physicochemical
[1] = Temperature cycling experiments; settings: TC8 Acetone/water = 1/1 (v/v) (62 mg/mL), 5-50° C., 6 cycles
Method: After 6 cycles, precipitates were collected at 5° C. by centrifugation. The solid part (wet cake) was investigated by XRPD. When differences were observed, additional investigations were performed (e.g. DSC, TGA etc.).

[2] = Vapor diffusion experiments; settings: VD6 Ethanol (8), anti-solvent t-Butyl methyl ether, 1:4, room temperature
Method: After sonication for about 30 seconds, obtained solution or suspension is filtered by a 0.45 μm syringe membrane filter. A clear solution is obtained. A suitable volume of the clear solution is transferred into a small glass vial (8 mL) without a lid and the lidless small vial was placed into a large glass vial (40 mL) containing anti-solvents in the bottom (solvent: anti-solvent=1:4, v/v). The large vials are tightly capped and placed at room temperature. Precipitates were collected by filtration. Solid part (wet cake) was investigated by XRPD.

[3] = Precipitation by addition of anti-solvent; settings: 1/5 (v:v)
Method: Anti-solvent was added into the obtained solutions slowly. Precipitates were collected by filtration. The solid part (wet cake) was investigated by XRPD. When differences were observed, additional investigations will be performed (e.g. […] etc.).

[4] = Behavior under compression; settings: 2 Mpa/2 min, hydraulic press
Method: XRPD characterization was performed to investigate polymorphic behavior under compression.

[5] = Equilibration with solvents at 25° C. for 2 weeks; settings: equilibration at 25° C. for 2 weeks
Method: Obtained suspension was filtered. The solid part (wet cake) was investigated by XRPD. When differences were observed, additional investigations were performed (e.g. DSC, TGA etc.).

[6] = Crystallization from hot saturated solutions by fast cooling; settings: 50° C. to ice bath
Method: Obtained solution or suspension was filtered by a 0.45 μm syringe membrane filter. Clear solutions were put into an ice bath and agitated. Precipitates were collected by filtration. The solid part (wet cake) was investigated by XRPD. When differences were observed, additional investigations were performed (e.g. DSC, TGA, etc.).

[7] = Grinding simulation experiments - wet grinding (granulation)
Method: Water or ethanol was added drop wise to about 20 mg of Form A, Form D, or Form T until solid was wetted sufficiently. Vortex was applied between each addition. Samples were dried under ambient condition for 10 min. Potential form transition and degree of crystallinity were evaluated by XRPD.

[8] = Variable humidity and temperature XRPD experiments
Method: Based on DVS and DSC results of Form C, Form C starts to loss water when humidity is below 30% or when temperature is higher than about 44° C. […] In order to determine identity of potential form changes after the dehydration and upon the solid-solid transition, variable humidity and variable temperature XRPD techniques were applied. XRPD patterns of the sample were measured online under 25° C./ambient environment (initial)-120° C./N2 protection-25° C./ambient environment-25° C./80% RH (40 min)-25° C./0% RH (15 h), and 25° C./ambient environment (initial)-250° C./N2 protection-25° C./ambient environment. […] Form L coverts back to Form C after exposure to 25° C./80% RH for 40 min.
Based on DVS and DSC results of Form D, Form D starts to loss water when humidity is below 10% or when temperature is higher than 46° C. In order to determine identity of the dehydration product, variable humidity and variable temperature XRPD techniques were applied. XRPD patterns of the sample were measured online with a temperature cycle of 25° C./ambient environment (initial)-130° C./N2 protection (10 min)-25° C./N2 protection-25° C./ambient environment (3h) and two water sorption and desorption cycles of 50% RH (initial)-90% RH (3h)-60% RH (2h)-40% RH (2h)-20% RH (3h)-10% RH (3h)-0% RH (6h)-10% RH (3h)-20% RH (3h)-50% RH at 25° C. […] (higher than dehydration temperature). Form S converts back to Form D after exposure to ambient condition for 3 h.
In order to investigate potential form change of Form A upon heating, variable temperature XRPD technique was applied. XRPD patterns of the sample were measured online with a temperature cycle of 25° C. (initial)-50° C./N2 protection-70° C./N2 protection-250° C./N2 protection-25° C./N2 protection-25° C./ambient condition (3h). […] Form A converts to Form U when temperature is 250° C., and Form U converts to Form T after cooling to 25° C.

[9] = Hygroscopicity: water sorption and desorption by dynamic vapor sorption (DVS)
Method: In some embodiments, the crystalline form described herein is further characterized by is further characterized by a dynamic vapor sorption (DVS) profile. In some embodiments, a DVS is recorded according to the method as described herein with a cycle of 40-0-95-0-40% RH at 25° C.
Water sorption and desorption behaviors of Form A, Form C, Form D, and Form T were investigated by DVS at 25° C. with a cycle of 40-0-95-0-40% RH. Dm/dt was 0.002. Minimum equilibration time was 60 min. Maximum equilibration time was 360 min. XRPD was measured after DVS test to determine potential form change.

[10] = Grinding simulation experiments - dry grinding
Method: About 20 mg of Form A, Form D, and Form T were ground manually with a mortar and a pestle for 5 min or 1 min. Potential from transition and degree of crystallinity were evaluated by XRPD.

[11] = Variable humidity and temperature XRPD experiments; remark: listed apart in the source
[12] = variable temperature XRPD, N2 protection

## Nc1nc(=O)n(-c2ccccc2Cl)c2nc(C(F)(F)F)ccc12 [solid state Form V, 4-Amino-1-(2-chlorophenyl)-7-(trifluoromethyl)pyrido[2,3-d]pyrimidin-2(1H)-one]
[1]
  Crystalline Form formed by temperature cycling: Form G
[2]
  Crystalline Form formed by vapor diffusion: Form H
[3]; AS5 Ethanol (7), anti-solvent Heptane
  Crystalline Form formed by addition of anti-solvent: Form G
[3]; AS8 Ethanol (7), anti-solvent Water
  Crystalline Form formed by addition of anti-solvent: Form F
[4]
  XRPD after compression: No form change
[5]; Acetone (63 mg/mL)
  Crystalline Form: Form G
[5]; Acetone/water = 1/1 (v/v) (63 mg/mL)
  Crystalline Form: Form G
[5]; Acetonitrile/water = 1/1 (v/v) (62 mg/mL)
  Crystalline Form: Form A
[5]; Ethanol/water = 1/1 (v/v) (64 mg/mL)
  Crystalline Form: Form C (hemi-hydrate)
[5]; Methanol (65 mg/mL)
  Crystalline Form: Form C (hemi-hydrate)
[5]; Methanol/water = 1/1 (v/v) (64 mg/mL)
  Crystalline Form: Form E (hemi-hydrate)
[5]; t-Butyl methyl ether (65 mg/mL)
  Crystalline Form: Form H (MTBE solvate)
[5]; t-Butyl methyl ether/water = 95/5(v/v) (63 mg/mL)
  Crystalline Form: Form H (MTBE solvate)
[6]; FC1 Methanol (30 mg/mL)
  Crystalline Form formed by fast cooling of hot saturated solution: Form C
[6]; FC2 Ethanol (13 mg/mL)
  Crystalline Form formed by fast cooling of hot saturated solution: Solid state Form V
[6]; FC3 2-Propanol (7 mg/mL)
  Crystalline Form formed by fast cooling of hot saturated solution: Form J (IPA solvate)
[6]; FC4 Acetone (7 mg/mL)
  Crystalline Form formed by fast cooling of hot saturated solution: Form G
[6]; FC5 Methanol/water = 1/1 (v/v) (6 mg/mL)
  Crystalline Form formed by fast cooling of hot saturated solution: Form C
[6]; FC6 Ethanol/water = 1/1 (v/v) (8 mg/mL)
  Crystalline Form formed by fast cooling of hot saturated solution: Form F
[6]; FC7 Methanol/MTBE = 1/1 (v/v) (13 mg/mL)
  Crystalline Form formed by fast cooling of hot saturated solution: Form H (MTBE solvate)

## Nc1nc(=O)n(-c2ccccc2Cl)c2nc(C(F)(F)F)ccc12 [Form A, 4-Amino-1-(2-chlorophenyl)-7-(trifluoromethyl)pyrido[2,3-d]pyrimidin-2(1H)-one]
[7]; Ethanol
  XRPD after wet grinding: substantially amorphous
[7]; wet grinding, XRPD
  tolerance to granulation with ethanol or water: poor tolerance
[8]; VT16 70° C./37% RH (10 min)
  XRPD (XRPD method 2): Form A
[8]; VT18 25° C./N2 protection (10 min)
  XRPD (XRPD method 2): Form T
[8]; VT19 25° C./37% RH (3 h)
  XRPD (XRPD method 2): Form T
[8]; [12]
  form change after heating to 70° C.: no form change
  form obtained on heating to 250° C.: Form U
[9]; DVS at 25° C., cycle 40-0-95-0-40% RH
  hygroscopicity: slightly hygroscopic
[9]; DVS, in 95% RH at 25° C.
  water uptake: 0.7%
[9]; XRPD after DVS
  form change after the DVS test: No form change
[10]; Dry grinding for 1 min
  XRPD after dry grinding: substantially amorphous
[10]; Dry grinding for 5 min
  XRPD after dry grinding: substantially amorphous
[10]; ground manually with mortar and pestle, 5 min or 1 min, XRPD
  tolerance to dry grinding: poor tolerance
[11]; VT14 25° C./37% RH (initial)
  XRPD (XRPD method 2): Form A
[11]; VT15 50° C./37% RH (10 min)
  XRPD (XRPD method 2): Form A
[11]; VT17 250° C./37% RH (10 min)
  XRPD (XRPD method 2): Form U
